Reference: patent publication US20180207114A1, “ESTROGEN RELATED RECEPTOR GAMMA (ERRgamma) ENHANCES AND MAINTAINS BROWN FAT THERMOGENIC CAPACITY” (Salk Institute for Biological Studies, priority 2015, published 2018)

What was measured:
[1] = tested on: control flox/flox (WT) and ERRγ ASKO (KO) mice; test: Oxygen consumption (VO2, CLAMS) after intraperitoneal injection of beta adrenergic agonist in mice; assay type: in vivo, mouse
Procedure: ERRγ flox/flox mice were crossed with adiponectin-Cre mice (Jackson Laboratory) to generate ERRγ-ASKO mice. ERRγ-ASKO mice and flox/flox control littermates received a standard chow diet (MI laboratory rodent diet 5001, Harlan Teklad) or high fat (60%) diet (F3282, Bio-Serv) and water ad libitum. All mice used for studies were male unless otherwise noted. Mice were housed at thermoneutrality (30° C.) unless otherwise indicated. PPARα null mice were purchased from Jackson laboratory.
Oxygen consumption (VO2) was measured using the Comprehensive Laboratory Animal Monitoring System (CLAMS; Columbus, Ohio). Data were normalized to body weights. Body temperatures were assessed using a RET-3 rectal probe for mice (Physitemp). CL316243 (Sigma) and norepinephrine were intraperitoneally injected into mice at 1 mg/kg body weight.

ERRβ = biological target: T1, ERRβ (Homo sapiens, UniProt O95718); settings: for example in the presence of PGC-1a; cited from earlier work
T1 sequence (O95718 1-433): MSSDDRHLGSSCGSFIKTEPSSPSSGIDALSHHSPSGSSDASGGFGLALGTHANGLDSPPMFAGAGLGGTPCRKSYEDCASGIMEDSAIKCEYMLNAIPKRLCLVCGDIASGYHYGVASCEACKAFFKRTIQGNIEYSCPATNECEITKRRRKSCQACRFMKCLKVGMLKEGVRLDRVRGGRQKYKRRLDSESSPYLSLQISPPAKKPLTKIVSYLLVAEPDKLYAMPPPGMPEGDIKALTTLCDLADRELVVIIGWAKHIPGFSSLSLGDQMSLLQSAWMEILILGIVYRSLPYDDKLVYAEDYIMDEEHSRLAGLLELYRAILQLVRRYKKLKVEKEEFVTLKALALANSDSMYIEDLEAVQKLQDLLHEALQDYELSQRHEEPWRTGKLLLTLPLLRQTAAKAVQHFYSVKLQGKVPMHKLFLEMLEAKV

ERRγ [2] = biological target: T2, ERRγ (Homo sapiens, UniProt P62508); settings: for example in the presence of PGC-1a; cited from earlier work
T2 sequence (P62508 1-458): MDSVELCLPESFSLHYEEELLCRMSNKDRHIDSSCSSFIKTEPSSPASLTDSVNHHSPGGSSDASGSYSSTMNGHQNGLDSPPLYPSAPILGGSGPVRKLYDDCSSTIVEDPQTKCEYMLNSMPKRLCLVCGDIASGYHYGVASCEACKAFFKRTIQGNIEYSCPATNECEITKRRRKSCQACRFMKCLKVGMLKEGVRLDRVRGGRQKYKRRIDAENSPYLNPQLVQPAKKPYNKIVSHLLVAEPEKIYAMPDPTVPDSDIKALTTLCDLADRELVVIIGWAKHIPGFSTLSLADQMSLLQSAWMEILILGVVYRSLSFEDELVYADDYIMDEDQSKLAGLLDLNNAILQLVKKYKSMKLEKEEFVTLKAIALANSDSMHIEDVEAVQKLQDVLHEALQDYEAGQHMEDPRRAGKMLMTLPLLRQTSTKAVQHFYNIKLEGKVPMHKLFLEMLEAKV

ERRα = biological target: T3, ERRα (Homo sapiens, UniProt P11474); settings: for example in the presence of PGC-1a; cited from earlier work
T3 sequence (P11474 1-423): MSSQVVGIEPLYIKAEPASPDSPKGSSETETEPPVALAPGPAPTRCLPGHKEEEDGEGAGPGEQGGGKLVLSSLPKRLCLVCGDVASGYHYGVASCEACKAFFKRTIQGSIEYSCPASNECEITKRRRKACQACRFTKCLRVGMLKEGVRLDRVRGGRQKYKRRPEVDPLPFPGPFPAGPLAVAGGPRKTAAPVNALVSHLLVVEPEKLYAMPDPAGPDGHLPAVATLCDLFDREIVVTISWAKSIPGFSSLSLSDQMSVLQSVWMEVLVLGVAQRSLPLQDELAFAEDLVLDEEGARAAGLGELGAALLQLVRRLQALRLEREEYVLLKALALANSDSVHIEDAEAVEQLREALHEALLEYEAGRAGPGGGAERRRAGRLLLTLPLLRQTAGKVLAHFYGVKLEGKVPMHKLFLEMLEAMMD

ERRγ [3] = biological target: T2, ERRγ; settings: cited from earlier work
[4] = tested on: differentiated PAZ-6 brown adipocytes; test: Seahorse XF oxygen consumption assay in differentiated PAZ-6 brown adipocytes; assay type: cell-based, human
Procedure: PAZ-6 human brown adipocytes were differentiated as previously described (18). Human adipose derived stem cells were cultured as previously described.
Bioenergetic profiles were analyzed using a XF24XF analyzer (Seahorse Bioscience) and the XF Palmitate-BSA FAO Substrate (Seahorse Bioscience).

C[C@H](Cc1ccc2c(c1)OC(C(=O)[O-])(C(=O)[O-])O2)NC[C@H](O)c1cccc(Cl)c1.[Na+].[Na+] [CL316243]
response (VO2, RER) to injection ([1]; ERRγ-ASKO female mice at thermoneutrality, 1 mg/kg BW intraperitoneal): blunted

Cc1cccc(C=NNC(=O)c2ccc(O)cc2)c1 [DY159]
activation of ERRβ (ERRβ): activate
activation of ERRγ (ERRγ [2]): activate
activation of ERRα (ERRα): activate

O=C(NN=Cc1ccccc1)c1ccc(O)cc1 [DY162]
activation of ERRβ (ERRβ): activate
activation of ERRγ (ERRγ [2]): activate
activation of ERRα (ERRα): activate

Cc1ccc(/C=N/NC(=O)c2ccc(O)cc2)cc1 [DY163]
activation of ERRβ (ERRβ): activate
activation of ERRγ (ERRγ [2]): activate
activation of ERRα (ERRα): activate

CCc1ccc(C=NNC(=O)c2ccc(O)cc2)s1 [DY164]
activation of ERRβ (ERRβ): activate
activation of ERRγ (ERRγ [2]): activate
activation of ERRα (ERRα): activate

Nc1ccc(C(=O)N/N=C/c2ccc(/N=N/c3ccccc3)cc2)cn1 [E6]
selectivity for ERRγ over ERRα and β (ERRγ [3]): selective for ERRγ but not ERRα and β

CC(C)c1ccc(/C=N/NC(=O)c2ccc(O)cc2)cc1 [GSK4716]
Increase in oxygen consumption rate in the presence or absence of palmitate ([4]; differentiated PAZ-6, 10 μM overnight, with vs without palmitate (FIG. 5M)): only occurred in the presence of fatty acids
proton leak or uncoupling ([4]; differentiated PAZ-6 treated overnight with 10 μM vs DMSO vehicle): higher
Oxygen consumption rate ([4]; differentiated PAZ-6 treated overnight with 10 μM vs DMSO vehicle, in the presence of fatty acids (palmitate)): higher

NC[C@H](O)c1ccc(O)c(O)c1 [NE, norepinephrine]
metabolic rate (VO2) response upon injection ([1]; ERRγ-ASKO mice at thermoneutrality, 1 mg/kg intraperitoneal): severely blunted
metabolic rate (oxygen consumption, VO2) upon injection ([1]; control flox/flox mice at thermoneutrality, 1 mg/kg intraperitoneal): increased
